Test results reported in patent US20250122193A1, “NOVEL PYRIDOCARBAZOLIUM COMPOUNDS AND MEDICAL USES THEREOF” (MyCural Therapeutics, priority 2021, published 2025).

Assays:
Type in all cases: cell-based
MYC:MAX interaction = MYC:MAX interaction (Homo sapiens, UniProt P01106); experiment: co-immunoprecipitation of endogenous MYC and MAX; conditions: 5 μM, MCF7 cells
Method: FIG. 1: MYCMI-7 (Compound Example 1) inhibits the MYC:MAX interaction in cells, bind MYC in vitro, and blocks MYC function. A) Molecular structure of MYCMI-7. B-E) split Gaussia luciferase (GLuc) assay. MYC or MYCN and MAX Gluc constructs were co-transfected into HeLa cells together with a firefly luciferase vector. 24 hours post transfection cells were treated with compounds, and after another 17-24 hours cells were harvested and both GLuc and firefly luciferase activities were measured. The mean of three different experiments is shown. Treatment with: B) 5 μM of MYCMI-7, 64 μM 10058-F4 or 5 μM JQ1, respectively, C) 6.5 μM MYCMI-7 on cells expressing MYC:MAX GLuc vs. GCN4:GCN4 GLuc, D) 5 μM MYCMI-7 and 5 μM ellipticine. E) 5 μM MYCMI-7 for various time points. F) in situ proximity ligation assay (isPLA). […] G) Quantification of isPLA dots. […] J) MYC target gene ODC1 expression after treatment with 5 μM MYCMI-7, quantified by qPCR. […] L) Recombinant MYC bHLHZip protein domain immobilized onto a CM5 chip was subjected to various concentrations of MYCMI-7 and the complex of MYCbHLHZip-MYCMI-7 was measured as response units by SPR. […]
(§1) For western blot equal amounts of proteins ([…]) were separated on a 4-12% SDS-PAGE gel. Proteins were transferred to Immobilion-P membrane (Millipore) and detected by immunostaining and chemoluminescence (Immobilion western HRP substrate; Millipore). […]

[1] = system: MYC+RAS-transformed rat embryonic fibroblasts; experiment: MYC+RAS transformation of REFs (foci, colonies in semi-solid medium)
Method: For anchorage-independent growth assay, cells were suspended in 250 μl 0.35% SeaPlaque agarose (InVitro) and seeded into 24 well plates which had previously been coated with a bottom layer of 250 μl 0.7% agarose. After 16 days, the colonies were stained with 100 μg/ml MTT (Sigma) overnight and colonies were counted. For foci formation assays, 3×10^4 REFs were seeded into 6 well plates. The following day the cells were transfected with the indicated plasmids (0.3 μg of each, a total of 0.6 μg per well). After another 24 hours compounds were added. The medium was changed every 2-3 days. When the cells had grown into confluency, medium containing 4% serum was added. After 14 days the number of foci was scored.

A375 melanoma cells = experiment: Apo-Tox Glo Triplex assay, A375; conditions: 3 days of treatment
Method: FIG. 4: MYCMI-7 induces apoptosis in malignant cells and growth arrest in normal cells. A) Cell cycle distribution analysis by flow cytometry of MYC-regulated P493-6 cells and normal rat embryo fibroblasts (REFs). Left panel, P493-6 synchronized in G0 by 24 hours treatment of […] doxycycline. Doxycycline was removed and the cells were harvested 48 hours after the addition of fresh medium containing DMSO or 5 μM MYCMI-7. Right panel, flow cytometry analysis of normal REFs treated with DMSO or 5 μM MYCMI-7. B) Apoptosis assay using the Cell Death Detection ELISA^plus kit. Left panel, immortalized Rat1 fibroblasts with different MYC status after 24 hours of 5 μM MYCMI-7 treatment, middle panel and right panels, normal REFs and normal peripheral blood lymphocytes, respectively, after 24 and 48 hours of 5 μM MYCMI-7 treatment. C) Measurement of viability and apoptosis by Apo-Tox Glo Triplex assay in A375 melanoma cells after 3 days of treatment with MYCMI-7 with the indicated concentrations. […] E) NHDFs treated with 3 μM MYCMI-7 for 72 hrs. Viability was measured by trypan blue exclusion assay. F) Cell growth measured with Cyt62 assay of primary normal human epidermal melanocytes (NHEM) treated for 72 hours with MYCMI-7, G) Viability measured by trypan blue exclusion assay of NHEM after treatment for 72 hours with MYCMI-7.

MYC protein [2] = target: MYC protein (Homo sapiens, UniProt P01106); experiment: steady state MYC protein level by western blot; conditions: for MYC protein level: 17 hours, 5 μM
Sequence of MYC protein (Homo sapiens, UniProt P01106) (P01106 16-454): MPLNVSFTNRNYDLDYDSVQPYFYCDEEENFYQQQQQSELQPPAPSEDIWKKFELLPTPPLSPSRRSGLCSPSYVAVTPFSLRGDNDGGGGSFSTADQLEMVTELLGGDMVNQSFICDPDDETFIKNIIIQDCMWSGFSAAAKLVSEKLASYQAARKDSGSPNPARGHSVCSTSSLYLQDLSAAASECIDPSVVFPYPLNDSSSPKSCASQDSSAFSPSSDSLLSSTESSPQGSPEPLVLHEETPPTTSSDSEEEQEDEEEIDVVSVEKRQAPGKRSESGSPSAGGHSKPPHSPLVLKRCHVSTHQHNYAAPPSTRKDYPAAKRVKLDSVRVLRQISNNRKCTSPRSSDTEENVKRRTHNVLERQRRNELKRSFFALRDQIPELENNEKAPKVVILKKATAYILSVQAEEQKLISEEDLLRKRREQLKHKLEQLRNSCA
Method: (§2) FIG. 2: MYCMI-7 downregulates MYC and MYCN protein expresión. A) Steady state levels of MYC protein in MCF7 cells after 17 hours exposure to indicated concentrations MYCMI-7 or ellipticine B) MYC mRNA expression in MCF7 cells after treatment with MYCMI-7 for various time points. C) Steady state levels of MYC protein in different HCT116 cell lines (WT, FBW7−/− or p53−/−) after 17 hours exposure to 5 μM MYCMI-7. Endogenous MYC was immunoprecipitated and detected by western blot analysis. D) Cycloheximide (CHX) chase in HCT116 cells. Cells were subjected to 5 μM MYCMI-7 30 min prior cycloheximide addition. Cells were harvested after the indicated time points, MYC was immunoprecipitated using N262 antibody and the MYC levels analyzed using western blot (C33 antibody). E) CHX chase after MYCMI-7 treatment performed as in (D) using Fbxw7-deficient HCT116 cells. F) Stable expression of wt, T58A or S62A MYC in HO15.19 MYC−/− cells. The cells were treated with 5 μM MYCMI-7 overnight, and MYC expression was analyzed by western blot. G) Cartoon showing a linear structural representation of wt MYC and indicated mutants. H-J) Expression of MYC mutants after MYCMI-7 treatment. COS-7 cells were transfected with CMV-driven vectors containing HA-tagged wt MYC or mutants for 24 hrs and treated with 5 μM MYCMI-7 for 17 hrs. The DN (H) and DC (I) MYC mutants encodes the C-terminal and N-terminal halves of the MYC protein, respectively. DBr (J) lacks the DNA-binding basic region of the protein. A-J). Representative western blots out of at least three experiments are shown.
(§3) For western blot equal amounts of proteins ([…]) were separated on a 4-12% SDS-PAGE gel. Proteins were transferred to Immobilion-P membrane (Millipore) and detected by immunostaining and chemoluminescence (Immobilion western HRP substrate; Millipore). For immunoprecipitations 500-1000 μg of protein was used. […] Briefly, cells were crosslinked with 1% formaldehyde on ice for 6 minutes. Nuclear chromatin was sonicated on ice to fragments from 0.3 kb to 0.5 kb. Nuclear chromatin equivalent to 2.5×10^7 cells was immunoprecipitated with 2 μg antibody.

MYC protein [3] = experiment: steady state MYC protein level by western blot; conditions: reconstituted HO15.19 MYC knockout Rat1 cells, 5 μM overnight
Method: as §2, §3

MYC protein turnover = target: T1, MYC protein turnover (Homo sapiens, UniProt P01106); experiment: cycloheximide (CHX) chase of MYC; conditions: wt HCT116 cells, 5 μM
T1 construct: Endogenous MYC was immunoprecipitated and detected by western blot analysis; endogenous in cells; host or cells: MCF7, HeLa, P493-6, HCT116 (WT, FBW7-/-, p53-/-)
T1 sequence (P01106 16-454): as above
Method: as §2, with “H-J) Expression of MYC mutants after MYCMI-7 treatment. COS-7 cells were transfected with CMV-driven vectors containing HA-tagged wt MYC or mutants for 24 hrs and treated with 5 μM MYCMI-7 for 17 hrs. The DN (H) and DC (I) MYC mutants encodes the C-terminal and N-terminal halves of the MYC protein, respectively. DBr (J) lacks the DNA-binding basic region of the protein. A-J). Representative western blots out of at least three experiments are shown.” left out
as §1

Sequence of MYC:MAX interaction (P01106 16-454): as above

Compound: CCN(CC)CC[n+]1ccc2c(C)c3[nH]c4ccccc4c3c(C)c2c1 [MYCMI-7, 2-(5,11-Dimethyl-6H-25-pyrido[4,3-b]carbazol-2-yl)-N,N-diethylethanamine bromide]
- MYC:MAX interaction by co-IP (MYC:MAX interaction; 1 hour after treatment): decreased
- MYC:MAX interaction by co-IP (MYC:MAX interaction; 4 hours): reduced drastically
- formation of transformed foci and colonies in semi-solid medium [1]: strongly inhibited
- GI50 (A375 melanoma cells): nanomolar range
- apoptosis (caspase activation) (A375 melanoma cells): induced apoptosis in a dose-dependent manner
- phosphorylation of MYC at Thr-58 or Ser-62 (MYC protein [2]): did not increase
- MYC protein level (MYC protein [2]; FBXW7−/− HCT116 cells): unaffected
- steady state level of MYC protein (MYC protein [2]; MCF7 cells, 17 hrs, 5 μM MYCMI-7): decreased drastically
- MYC protein level (MYC protein [2]; wt and p53 null HCT116 cells): strongly reduced
- levels of wt, T58A and S62A MYC (MYC protein [3]): reduced the levels of both wt and the MYC mutants
- turnover rate of MYC (CHX chase) (MYC protein turnover): increased
